From patent US7632654B2, “Means and methods for detecting endoglycosidase activity” (Academisch Ziekenhuis bij de Universiteit van Amsterdam, priority 2002, dated 2009)

Key:
Assay type in all cases: biochemical
[1] = target: T1, lysozyme from chicken egg (Gallus gallus, UniProt P00698); test: substrate preference of lysozyme, 4MU release; settings: lysozyme from chicken egg (Sigma)
T1 construct: lysozyme from chicken egg; purchased Sigma; host or cells: chicken egg
Excerpt: (§1) Substrate preference of lysozyme. The enzymatic activity of commercial lysozyme preparations was 25 measured with 4-MU-chitobioside and 4MU-deoxychitbioside substrates. The release of 4MU was detected fluorimetrically, as described before. Similar to the findings for chitotriosidase (chitinase), the activity measured with the deoxy-subsytrate is far higher: […]

[2] = target: T2, lysozyme from human neutrophils (Homo sapiens, UniProt P61626); test: substrate preference of lysozyme, 4MU release; settings: lysozyme from human neutrophils (Sigma)
T2 construct: lysozyme from human neutrophils; purchased Sigma; host or cells: human neutrophils
T2 sequence (P61626 19-148): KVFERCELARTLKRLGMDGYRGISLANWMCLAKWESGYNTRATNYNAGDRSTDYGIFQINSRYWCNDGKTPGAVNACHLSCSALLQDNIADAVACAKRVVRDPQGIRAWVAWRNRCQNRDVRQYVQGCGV
Excerpt: as §1

[3] = target: T3, lysozyme from human milk (Homo sapiens, UniProt P61626); test: substrate preference of lysozyme, 4MU release; settings: lysozyme from human milk (Sigma)
T3 construct: lysozyme from human milk; purchased Sigma; host or cells: human milk
T3 sequence (P61626 19-148): T2 sequence (P61626 19-148)
Excerpt: as §1

[4] = system: bacterial chitinase, 39 and 50 kDa forms of human and mouse chitotriosidase and AMCases, fetal calf serum chitinase; test: CHIS versus 4-MU-chitobiose as substrate for other chitinases; settings: in all cases (not shown)
Procedure: For this purpose, assays were performed with CHIS and 4-MU-chitobiose as substrate with bacterial chitinase (Sigma), purified recombinant 39 and 50 kDa forms of human and mouse chitotriosidase and AMCases and purified fetal calf serum chitinase.

[5] = target: T4, 50 kDa chitotriosidase (Homo sapiens, UniProt Q13231); test: hydrolysis of 4-MU substrates by pure 50 kDa chitotriosidase, fluorimetric 4-MU release; settings: 37 C
T4 construct: made in house
T4 sequence (Q13231 22-466): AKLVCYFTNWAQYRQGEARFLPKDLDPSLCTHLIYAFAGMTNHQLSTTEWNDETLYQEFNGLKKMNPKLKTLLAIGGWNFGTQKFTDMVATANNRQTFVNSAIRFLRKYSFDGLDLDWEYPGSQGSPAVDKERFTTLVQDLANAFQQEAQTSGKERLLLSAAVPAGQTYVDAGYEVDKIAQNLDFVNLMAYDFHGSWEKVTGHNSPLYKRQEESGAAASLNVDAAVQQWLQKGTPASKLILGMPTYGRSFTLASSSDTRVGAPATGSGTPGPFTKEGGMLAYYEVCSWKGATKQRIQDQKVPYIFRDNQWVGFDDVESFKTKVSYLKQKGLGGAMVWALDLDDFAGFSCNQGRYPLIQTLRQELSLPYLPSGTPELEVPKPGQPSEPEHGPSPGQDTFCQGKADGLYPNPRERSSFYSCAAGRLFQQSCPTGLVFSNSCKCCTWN
Procedure: FIG. 3. Substrate concentration dependency of chitriosidase activity with novel artificial substrate as compared to present one. Activity of 50 kDa chitotriosdase towards 4-MU-chitobiose and 4-deoxy-variant hereof (CHIS1). Enzyme was incubated at 37 C with indicated concentrations of substrates. Reactions were stopped after 10 minutes and 4-MU measured fluorometrically.
FIG. 4. Improved linearity of chitotriosidase assay with time and enzyme concentration. Activity of 50 kDa chitotriosdase towards 4-MU-chitobiose and 4-deoxy-variant hereof (CHIS). Reaction time (FIG. 5a) and concentration of enzyme (FIG. 5b) were varied and enzyme activity was measured with 4MU-chitobiose and 4-deoxy-variant hereof.
The CHISI compound was tested as substrate. For this purpose, pure 50 kDa chitotriosidase was incubated with this substrate at 37 C in Mclvaine buffer (pH 5.5). For comparison the enzymes were in parallel incubated with 4-MU-chitobiose (Sigma). The reaction was stopped by adding excess of 0.1 M glycine-NaOH @H 10.3) and fluorescence was monitored (excitation at 366 nm, emission at 445 nm).
Even more importantly, saturating substrate concentrations (100-200 microM) can be used in the case of CHIS (Km of chitotriosidase is 50 microM). This renders a great improvement with regard to reproducibility of the assay and interpretation of results. […]

T1 sequence (P00698 19-147): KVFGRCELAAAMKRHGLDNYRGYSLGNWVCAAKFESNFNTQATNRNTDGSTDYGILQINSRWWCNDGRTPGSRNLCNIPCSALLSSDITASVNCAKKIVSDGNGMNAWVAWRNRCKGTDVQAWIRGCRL

Question: With `CC(=O)N[C@H]1[C@H](Oc2ccc3c(C)cc(=O)oc3c2)O[C@H](CO)[C@@H](O[C@@H]2O[C@H](CO)C[C@H](O)[C@H]2NC(C)=O)[C@@H]1O` [CHIS1, 4-methylumbellyferyl 2-acetamido-2-deoxy-4-0-(2-acetamido-2,4-dideoxy-beta-D-glucopyranosyl)-beta-Dglucopyranoside] as the molecule, how does the “ratio 4MU-deoxychitobioside/4Mu-chitobioside” value [1] read?
Answer: 2.1-2.4

Question: What about the “ratio 4MU-deoxychitobioside/4Mu-chitobioside” value [2] of the same molecule?
Answer: 3.0-3.2

Question: What about the “ratio 4MU-deoxychitobioside/4Mu-chitobioside” value [3] of the same molecule?
Answer: 2.5-3.0

Question: And the “substrate behaviour with other chitinases” value [4]?
Answer: far more sensitive and linear at saturating substrate concentration

Question: And the Km ([5]; Mclvaine buffer pH 5.5)?
Answer: 50 µM

Question: And the substrate inhibition ([5]; pure 50 kDa chitotriosidase, pH 5.5, FIG. 3)?
Answer: does not show substrate inhibition
